Assay results reported in patent US20150344457A1, “METHODS OF INHIBITING PRMT5” (EPIZYME, INC., priority 2012, published 2015).
Where two headings read alike, the source gives them in different places.

What was measured:
PRMT5/MEP50 = target: T1, PRMT5/MEP50 (Homo sapiens, UniProt O14744); experiment: PRMT5 Biochemical Assay (PRMT5/MEP50 enzyme assay on peptide substrate, 3H-SAM Flashplate)
T1 construct: Expressed full-length human Flag-PRMT5/6His-MeP50 protein complex was purified; made in house; host or cells: Spodoptera frugiperda (SF9) insect cells, baculovirus (pDEST8)
T1 sequence (O14744 with tags, fused parts or gaps): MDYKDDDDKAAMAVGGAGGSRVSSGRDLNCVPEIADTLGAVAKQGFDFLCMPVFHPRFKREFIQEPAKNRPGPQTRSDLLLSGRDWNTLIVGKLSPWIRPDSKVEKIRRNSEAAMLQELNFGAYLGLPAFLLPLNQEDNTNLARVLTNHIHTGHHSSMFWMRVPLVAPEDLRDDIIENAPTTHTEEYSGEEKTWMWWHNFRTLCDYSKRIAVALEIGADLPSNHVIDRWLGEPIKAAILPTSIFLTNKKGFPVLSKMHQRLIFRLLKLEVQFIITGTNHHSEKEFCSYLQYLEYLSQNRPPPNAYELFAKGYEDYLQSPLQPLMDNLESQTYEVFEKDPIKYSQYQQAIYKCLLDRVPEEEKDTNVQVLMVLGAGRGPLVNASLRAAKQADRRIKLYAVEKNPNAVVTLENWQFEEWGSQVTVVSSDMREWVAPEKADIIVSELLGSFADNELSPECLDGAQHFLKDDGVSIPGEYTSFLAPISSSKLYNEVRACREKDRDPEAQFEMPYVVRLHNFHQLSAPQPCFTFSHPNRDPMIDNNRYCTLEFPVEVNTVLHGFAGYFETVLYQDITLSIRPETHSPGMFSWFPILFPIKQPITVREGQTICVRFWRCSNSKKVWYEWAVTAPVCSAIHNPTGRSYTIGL
T1 sequence (Q9BQA1 with tags, fused parts or gaps partner limits assumed): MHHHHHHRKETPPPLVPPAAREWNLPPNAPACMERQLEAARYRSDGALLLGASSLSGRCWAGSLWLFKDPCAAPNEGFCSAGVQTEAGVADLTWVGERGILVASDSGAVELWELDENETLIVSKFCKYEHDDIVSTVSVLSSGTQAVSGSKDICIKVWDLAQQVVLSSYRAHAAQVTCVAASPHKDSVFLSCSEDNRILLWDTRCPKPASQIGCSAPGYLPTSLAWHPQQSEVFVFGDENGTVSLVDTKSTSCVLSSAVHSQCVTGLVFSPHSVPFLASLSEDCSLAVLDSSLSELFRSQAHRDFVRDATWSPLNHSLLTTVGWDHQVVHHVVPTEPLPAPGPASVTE

Z-138 cells = experiment: Z-138 Proliferation Assay (Cell Titer Glo, 5 days); assay type: cell-based; conditions: Homo sapiens, 120 h, Table A-2, 5 days, top concentration 20 μM
In short: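 Exponentially growing Z-138 cells (10,000 cells/ml) in RPMI 1640 with 10% FBS are exposed to nine-point 3-fold dilutions (final top concentration 20 μM, 0.2% DMSO) for 5 days at 37° C. Viability is measured as ATP by CellTiter-Glo luminescence. The 50% inhibitory concentration comes from a 4-parameter fit.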

[1] = Table A-2, PRMT5/MEP50 4 nM, 3H-SAM 75 nM, peptide 40 nM, read-out: Biochemical IC50

Row | IC50 (PRMT5/MEP50; [1]) | SMILES | IC50 (PRMT5/MEP50; Biochemical IC50) | EC50 (Z-138 cells)
1 |  | O=C(COc1cccc2cccnc12)NCC(O)CN1CCc2ccccc2C1 (stereo not shown) [Compound A6] | < 0.1 µM | 0.101 to 1 µM
2 | 0.101 to 1 µM | O=C(COc1cccc(F)c1)NCC(O)CN1CCc2ccccc2C1 (stereo not shown) [Compound A7] |  | 10 to 50 µM
3 | 0.101 to 1 µM | N#Cc1cccc(OCC(=O)NCC(O)CN2CCc3ccccc3C2)c1 (stereo not shown) [Compound A8] |  | 10 to 50 µM
4 | 0.101 to 1 µM | Cc1ccc(OCC(=O)NCC(O)CN2CCc3ccccc3C2)cc1 (stereo not shown) [Compound A9] |  | 10 to 50 µM
5 | 0.101 to 1 µM | N#Cc1ccc(OCC(=O)NCC(O)CN2CCc3ccccc3C2)cc1 (stereo not shown) [Compound A11] |  | 10 to 50 µM
6 | 0.101 to 1 µM | COc1ccc(OCC(=O)NCC(O)CN2CCc3ccccc3C2)cc1 (stereo not shown) [Compound A12] |  | 10 to 50 µM
7 | 0.101 to 1 µM | Cc1ccccc1OCC(=O)NCC(O)CN1CCc2ccccc2C1 (stereo not shown) [Compound A15] |  | 1 to 10 µM
8 | 0.101 to 1 µM | O=C(COc1ccccc1F)NCC(O)CN1CCc2ccccc2C1 (stereo not shown) [Compound A16] |  | 10 to 50 µM
9 | 0.101 to 1 µM | N#Cc1ccccc1OCC(=O)NCC(O)CN1CCc2ccccc2C1 (stereo not shown) [Compound A17] |  | 10 to 50 µM
10 | 1 to 10 µM | O=C(CNc1ccccc1)NCC(O)CN1CCc2ccccc2C1 (stereo not shown) [Compound A18] |  | > 20 µM
11 | < 0.1 µM | CC(Oc1ccccc1)C(=O)NCC(O)CN1CCc2ccccc2C1 (stereo not shown) [Compound A19] |  | 1 to 10 µM
12 | < 0.1 µM | COc1cccc(OCC(=O)NCC(O)CN2CCc3ccccc3C2)c1 (stereo not shown) [Compound A20] |  | 1 to 10 µM
13 | 0.101 to 1 µM | CC(=O)Nc1ccc(OCC(=O)NCC(O)CN2CCc3ccccc3C2)cc1 (stereo not shown) [Compound A21] |  | > 20 µM
14 | < 0.1 µM | COc1ccccc1OCC(=O)NCC(O)CN1CCc2ccccc2C1 (stereo not shown) [Compound A22] |  | 1 to 10 µM
15 | < 0.1 µM | Cn1ncc2ccc(OCC(=O)NCC(O)CN3CCc4ccccc4C3)cc21 (stereo not shown) [Compound A23] |  | 1 to 10 µM
16 | < 0.1 µM | Cc1cccc(OCC(=O)NCC(O)CN2CCc3ccccc3C2)c1 (stereo not shown) [Compound A26] |  | 1 to 10 µM
17 | < 0.1 µM | CN(C)c1cccc(OCC(=O)NCC(O)CN2CCc3ccccc3C2)c1 (stereo not shown) [Compound A27] |  | 1 to 10 µM
18 | < 0.1 µM | CS(=O)(=O)Nc1cccc(OCC(=O)NCC(O)CN2CCc3ccccc3C2)c1 (stereo not shown) [Compound A28] |  | 1 to 10 µM
19 | 0.101 to 1 µM | NC(=O)c1ccccc1OCC(=O)NCC(O)CN1CCc2ccccc2C1 (stereo not shown) [Compound A29] |  | > 20 µM
20 | 1 to 10 µM | CC(=O)Nc1cccc(OCC(=O)NCC(O)CN2CCc3ccccc3C2)c1 (stereo not shown) [Compound A31] |  | 10 to 50 µM
21 | 0.101 to 1 µM | O=C(COc1ccccc1)NC[C@H](O)CN1CCc2ccccc2C1 [Compound A32] |  | 10 to 50 µM
22 | 0.101 to 1 µM | NC(=O)c1cccc(OCC(=O)NCC(O)CN2CCc3ccccc3C2)c1 (stereo not shown) [Compound A34] |  | 10 to 50 µM
23 | 0.101 to 1 µM | CN(C)c1ccc(OCC(=O)NCC(O)CN2CCc3ccccc3C2)cc1 (stereo not shown) [Compound A35] |  | 10 to 50 µM
24 | 0.101 to 1 µM | CC(=O)Nc1ccccc1OCC(=O)NCC(O)CN1CCc2ccccc2C1 (stereo not shown) [Compound A36] |  | > 20 µM
25 | < 0.1 µM | CS(=O)(=O)c1ccccc1OCC(=O)NCC(O)CN1CCc2ccccc2C1 (stereo not shown) [Compound A37] |  | 1 to 10 µM
26 | < 0.1 µM | CN(C)c1ccccc1OCC(=O)NCC(O)CN1CCc2ccccc2C1 (stereo not shown) [Compound A38] |  | 1 to 10 µM
27 | < 0.1 µM | CC(Oc1cccc2cccnc12)C(=O)NCC(O)CN1CCc2ccccc2C1 (stereo not shown) [Compound A39] |  | 0.101 to 1 µM

Row | IC50 (PRMT5/MEP50; [1]) | SMILES | IC50 (PRMT5/MEP50; Biochemical IC50) | EC50 (Z-138 cells)
28 | < 0.1 µM | O=C(COc1ccccc1C1CCCCC1)NCC(O)CN1CCc2ccccc2C1 (stereo not shown) [Compound A40] |  | 1 to 10 µM
29 | 0.101 to 1 µM | CS(=O)(=O)Nc1ccc(OCC(=O)NCC(O)CN2CCc3ccccc3C2)cc1 (stereo not shown) [Compound A42] |  | > 20 µM
30 | < 0.1 µM | CC(C)(Oc1cccc2cccnc12)C(=O)NCC(O)CN1CCc2ccccc2C1 (stereo not shown) [Compound A43] |  | 1 to 10 µM
31 |  | O=C(COc1cccc2cccnc12)NC[C@H](O)CN1CCc2ccccc2C1 [Compound A44] | 0.101 to 1 µM | 10 to 50 µM
32 |  | O=C(COc1cccc2cccnc12)NC[C@@H](O)CN1CCc2ccccc2C1 [Compound A45] | < 0.1 µM | 0.101 to 1 µM
33 | 0.101 to 1 µM | Cn1cnc2cc(OCC(=O)NCC(O)CN3CCc4ccccc4C3)ccc21 (stereo not shown) [Compound A46] |  | 10 to 50 µM
34 | < 0.1 µM | CS(=O)(=O)c1cccc(OCC(=O)NCC(O)CN2CCc3ccccc3C2)c1 (stereo not shown) [Compound A47] |  | 1 to 10 µM
35 | < 0.1 µM | O=C(COc1cccc2ccc(N3CCOCC3)nc12)NCC(O)CN1CCc2ccccc2C1 (stereo not shown) [Compound A48] |  | 10 to 50 µM
36 | < 0.1 µM | O=C(COc1ccccc1N1CCOCC1)NCC(O)CN1CCc2ccccc2C1 (stereo not shown) [Compound A49] |  | 1 to 10 µM
37 | < 0.1 µM | O=C(COc1ccccc1-c1cc[nH]n1)NCC(O)CN1CCc2ccccc2C1 (stereo not shown) [Compound A50] |  | 1 to 10 µM
38 | < 0.1 µM | CS(=O)(=O)Nc1ccccc1OCC(=O)NCC(O)CN1CCc2ccccc2C1 (stereo not shown) [Compound A53] |  | 1 to 10 µM
39 | < 0.1 µM | O=C(COc1cccc2c1CCCC2)NCC(O)CN1CCc2ccccc2C1 (stereo not shown) [Compound A64] |  | 1 to 10 µM
40 | < 0.1 µM | NS(=O)(=O)c1ccccc1OCC(=O)NCC(O)CN1CCc2ccccc2C1 (stereo not shown) [Compound A65] |  | 1 to 10 µM
41 | < 0.1 µM | O=C(COc1cccc2ccccc12)NCC(O)CN1CCc2ccccc2C1 (stereo not shown) [Compound A66] |  | 1 to 10 µM
42 | < 0.1 µM | O=C(COc1ccccc1-c1cc[nH]n1)NC[C@@H](O)CN1CCc2ccccc2C1 [Compound A67] |  | 1 to 10 µM
43 | < 0.1 µM | O=C(COc1ccccc1-c1cc[nH]n1)NC[C@H](O)CN1CCc2ccccc2C1 [Compound A68] |  | > 20 µM
44 | < 0.1 µM | O=C(COc1ccc2ncn(C3CCNCC3)c2c1)NCC(O)CN1CCc2ccccc2C1 (stereo not shown) [Compound A70] |  | > 20 µM
45 | < 0.1 µM | CN1CCC(n2cnc3ccc(OCC(=O)NCC(O)CN4CCc5ccccc5C4)cc32)CC1 (stereo not shown) [Compound A71] |  | > 20 µM
46 | < 0.1 µM | C[C@@H](Oc1cccc2cccnc12)C(=O)NC[C@H](O)CN1CCc2ccccc2C1 [Compound A73] |  | 0.101 to 1 µM
47 | < 0.1 µM | C[C@@H](Oc1cccc2cccnc12)C(=O)NC[C@@H](O)CN1CCc2ccccc2C1 [Compound A74] |  | 1 to 10 µM
48 | < 0.1 µM | CN1CCC(n2ncc3cc(OCC(=O)NCC(O)CN4CCc5ccccc5C4)ccc32)C1 (stereo not shown) [Compound A96] |  | 10 to 50 µM
49 | 0.101 to 1 µM | COc1ccc2cccc(OCC(=O)NC[C@H](O)CN3CCc4ccccc4C3)c2n1 [Compound A97] |  | 1 to 10 µM
50 | < 0.1 µM | COc1ccc2cccc(OCC(=O)NC[C@@H](O)CN3CCc4ccccc4C3)c2n1 [Compound A98] |  | 1 to 10 µM
51 | < 0.1 µM | CN1CCc2c(cccc2OCC(=O)NCC(O)CN2CCc3ccccc3C2)C1 (stereo not shown) [Compound A99] |  | 1 to 10 µM
52 | < 0.1 µM | O=C(COc1cccc2c1OCCO2)NCC(O)CN1CCc2ccccc2C1 (stereo not shown) [Compound A100] |  | 1 to 10 µM
53 | < 0.1 µM | CC(=O)N1CCc2c(cccc2OCC(=O)NCC(O)CN2CCc3ccccc3C2)C1 (stereo not shown) [Compound A101] |  | 1 to 10 µM
